Entries after “also recorded” stand apart in the source; their conditions may differ.
Experiments:
[1] = cited from earlier work
[2] = cited from earlier work; remark: listed apart in the source
[3] = cited from earlier work; remark: listed apart in the source
[4] = cited from earlier work; remark: listed apart in the source
[5] = MR-derived skeletal muscle blood flow (SMBF) in subjects with T2D with or without Cilostazol therapy; format: in vivo, human; settings: subjects with T2D, 12 months of Cilostazol vs not treated, at rest and with exercise; critically ischemic limbs (ABI <0.5)
Source text: MG=Medial Gastrocnemius, SOL=Soleus, color bar unit=ml/min/100 g.

[6] = tested on: serum circulating Fatty Acid Synthase (cFAS); assay: Serum cFAS (ELISA) in subjects with T2D and PAD with or without Cilostazol therapy; format: in vivo, human; settings: subjects with T2D and PAD receiving Cilostazol therapy vs subjects not receiving the medication
Description: FIG. 9A-FIG. 9C is a series of graphs showing serum cFAS is a biomarker for disease subjects with PAD and T2D. cFAS was evaluated using 96-well ELISA (Aviva Systems Biology) FIG. 9A. Subjects with severe PAD (n=29) had more serum cFAS than subjects with moderate PAD (n=30), and subjects with no PAD (n=22). FIG. 9B. cFAS is elevated in subjects with T2D (n=40) compared to no T2D (n=41). FIG. 9C. cFAS is also elevated in subjects with DCSI ≥5 (n=15) compared to DCSI <5 (n=14). FIG. 11A-FIG. 11B is a pie chart and box plot showing cilostazol in our subjects with T2D and PAD. FIG. 11A. In our current clinical practice, Cilostazol therapy is currently administered to only a minority of subjects, and therefore the majority of patients would likely meet study eligibility criteria. FIG. 11B. Subjects with T2D and PAD who receive Cilostazol therapy have lower cFAS (whiskers indicate max and min values) in study cohort. Over a 1 year period, we collected serum specimens from subjects with peripheral arterial disease (PAD; severe or moderate), and/or T2D. Serum cFAS content and enzymatic activity was evaluated as a potential biomarker for PAD and T2D disease severity. […] We retrospectively reviewed patient encounters at the Barnes-Jewish Hospital vascular surgery clinic over a 6-month period to determine the prevalence of Cilostazol prescriptions among subjects with T2D, PAD and/or FWs.

[7] = 3 to 6 month course of Cilostazol therapy
[8] = 8-week course, patients with T2D and PAD

In the case of O=C1CCc2cc(OCCCCc3nnnn3C3CCCCC3)ccc2N1 [Cilostazol, 6-[4-(1-cyclohexyl-1H-tetrazol-5-yl)butoxy]-3,4-dihydrocarbostyril], the “pro-atherogenic / serum lipid profiles” value [1, 7] is given as “improve; also recorded: normalize”, the “total cholesterol and serum LDL” value [1, 7] is given as “decrease” and the “risk of total vascular events, especially cerebrovascular events” value ([1]; meta-analysis of 12 RCTs, patients with T2D) is given as “significantly decrease”. The “PUFA to SFA ratio” value ([1]; previous literature) was “alter”, the “effect on Class III-IV heart failure” value ([2]; FDA black-box warning in this patient population) was “can exacerbate the condition” and the “minor side effect: abdominal pain” value ([2]; incidence) was 5%. The “minor side effect: arthritis” value ([2]; incidence) was 2%, the “minor side effect: cough” value ([2]; incidence) was 4% and the “minor side effect: diarrhea” value ([2]; incidence) was 19%. For the same compound, the “minor side effect: dizziness” value ([2]; incidence) was 10%, the “minor side effect: dyspepsia” value ([2]; incidence) was 6% and the “minor side effect: flatulence” value ([2]; incidence) was 3%. The “minor side effect: headaches” value ([2]; incidence) was 34%, the “minor side effect: myalgia” value ([2]; incidence) was 3% and the “minor side effect: nausea” value ([2]; incidence) was 7%. For the same compound, the “minor side effect: pharyngitis” value ([2]; incidence) was 10%, the “minor side effect: skin rash” value ([2]; incidence) was 2% and the “minor side effect: vertigo” value ([2]; incidence) was 2%. The “minor side effect: vomiting” value ([2]; incidence) was 2%, the “lower extremity ischemic symptoms” value [3, 8] was “improving” and the “peripheral skin perfusion detected with transcutaneous oxygen pressure (TcPO2)” value [3, 8] was “improve”. For the same compound, the “onset of FWs” value ([3]; patients with T2D) was “prevent”, the peripheral skin perfusion ([3]; previous studies) was “enhance” and the wound healing ([3]; previous studies) was “promote”. The “increase in walking distance” value ([4]; 3-month treatment course, patients with claudication) was 35-50%, the “limb function (walking distance)” value ([4]; previous studies) was “improve” and the “skeletal muscle blood flow (SMBF), lower leg perfusion by MR” value [5] was “improved perfusion; also recorded: Subject not treated with Cilostazol (top) demonstrated less lower leg perfusion”. For the same compound, the “serum cFAS” value [6] was “significantly lower”.

From patent publication US11169145B2, “Methods of detection and treatment for cardiovascular disease and foot wounds” (Washington University, priority 2017, dated 2021)
